Laboratory results: PubChem BioAssay AID248 (DTP/NCI, 2004)
Where “and” joins values, the source holds several entries; their conditions need not be identical. Identical values can stand only once. Inconclusive results and toxic doses are left out. No stated cut-off is given here; in the data, active means T/C of 150% or more; inactive means T/C below 125%.

System: L1210 leukemia ip in BDF1 mice, survival T/C
Assay: NCI In Vivo Anticancer Drug Screen. Data for tumor model L1210 Leukemia (intraperitoneal) in B6D2F1 (BDF1) mice
Details: endpoint: mean survival time, higher = longer survival
How it was run: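 Antitumor effect is assessed in tumor-bearing animals. Survival in the compound arm is compared with a vehicle-dosed control arm and expressed as their quotient.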

[1] = dose: 100.0 mg/kg/injection, schedule: Q01DX009 (ip), vehicle: Klucel (hydroxypropylcellulose) (HPC)
[2] = dose: 100.0 mg/kg/injection, schedule: Q04DX003 (ip), vehicle: saline
[3] = dose: 200.0 mg/kg/injection, schedule: Q01DX009 (ip), vehicle: Klucel (hydroxypropylcellulose) (HPC)
[4] = dose: 200.0 mg/kg/injection, schedule: Q04DX003 (ip), vehicle: saline
[5] = dose: 400.0 mg/kg/injection, schedule: Q01DX009 (ip), vehicle: Klucel (hydroxypropylcellulose) (HPC)
[6] = dose: 400.0 mg/kg/injection, schedule: Q04DX003 (ip), vehicle: saline
[7] = dose: 100.0 mg/kg/injection, schedule: Q04DX003 (ip), vehicle: saline with Tween-80
[8] = dose: 200.0 mg/kg/injection, schedule: Q04DX003 (ip), vehicle: saline with Tween-80
[9] = dose: 400.0 mg/kg/injection, schedule: Q04DX003 (ip), vehicle: saline with Tween-80
[10] = dose: 100.0 mg/kg/injection, schedule: Q01DX001 (ip), vehicle: carboxymethylcellulose (CMC)
[11] = dose: 200.0 mg/kg/injection, schedule: Q01DX001 (ip), vehicle: carboxymethylcellulose (CMC)
[12] = dose: 400.0 mg/kg/injection, schedule: Q01DX001 (ip), vehicle: carboxymethylcellulose (CMC)
[13] = dose: 100.0 mg/kg/injection, schedule: Q01DX009 (ip), vehicle: gum acacia
[14] = dose: 200.0 mg/kg/injection, schedule: Q01DX009 (ip), vehicle: gum acacia
[15] = dose: 400.0 mg/kg/injection, schedule: Q01DX009 (ip), vehicle: gum acacia
[16] = dose: 100.0 mg/kg/injection, schedule: Q01DX001 (ip), vehicle: saline
[17] = dose: 200.0 mg/kg/injection, schedule: Q01DX001 (ip), vehicle: saline
[18] = dose: 400.0 mg/kg/injection, schedule: Q01DX001 (ip), vehicle: saline
[19] = dose: 100.0 mg/kg/injection, schedule: Q04DX003 (ip), vehicle: Klucel (hydroxypropylcellulose) (HPC)
[20] = dose: 200.0 mg/kg/injection, schedule: Q04DX003 (ip), vehicle: Klucel (hydroxypropylcellulose) (HPC)
[21] = dose: 400.0 mg/kg/injection, schedule: Q04DX003 (ip), vehicle: Klucel (hydroxypropylcellulose) (HPC)
[22] = dose: 12.5 mg/kg/injection, schedule: Q01DX009 (ip), vehicle: Klucel (hydroxypropylcellulose) (HPC)
[23] = dose: 25.0 mg/kg/injection, schedule: Q01DX009 (ip), vehicle: Klucel (hydroxypropylcellulose) (HPC)
[24] = dose: 25.0 mg/kg/injection, schedule: Q04DX003 (ip), vehicle: saline
[25] = dose: 50.0 mg/kg/injection, schedule: Q04DX003 (ip), vehicle: saline
[26] = dose: 50.0 mg/kg/injection, schedule: Q01DX009 (ip), vehicle: Klucel (hydroxypropylcellulose) (HPC)

Measured: T/C

Cc1ccc(N2CSC(=S)N(c3ccc(C)cc3)C2)cc1
inactive: [1] 101 % of control | [2] 94 % of control | [3] 96 % of control | [4] 89 % of control | [5] 95 % of control | [6] 88 % of control

CC(=O)NC12CC3CC(CC(C)(C3)C1)C2
inactive: dose: 100.0 mg/kg/injection, schedule: Q01DX001 (ip), vehicle: Klucel (hydroxypropylcellulose) (HPC) 103 % of control | dose: 200.0 mg/kg/injection, schedule: Q01DX001 (ip), vehicle: Klucel (hydroxypropylcellulose) (HPC) 106 % of control

CCC(C)NC(=O)C1C2CC3OC(=O)C1C3C2 (configuration not stated)
inactive: [7] 106 % of control and 98 % of control | [8] 101 % of control and 98 % of control | [9] 95 % of control and 98 % of control

CCCCc1ccc(Sc2cccc3c2C(=O)c2c(Sc4ccc(CCCC)cc4)cccc2C3=O)cc1
inactive: dose: 100.0 mg/kg/injection, schedule: Q01DX009 (ip), vehicle: saline with Tween-80 97 % of control | [7] 93 % of control | dose: 200.0 mg/kg/injection, schedule: Q01DX009 (ip), vehicle: saline with Tween-80 102 % of control | [8] 97 % of control | dose: 400.0 mg/kg/injection, schedule: Q01DX009 (ip), vehicle: saline with Tween-80 92 % of control | [9] 97 % of control

CCOC(=O)CC(=O)C(F)(F)F.CCOC(=O)CC(=O)C(F)(F)F.[Ni]
inactive: dose: 5.0 mg/kg/injection, schedule: Q01DX001 (ip), vehicle: saline 96 % of control | dose: 10.0 mg/kg/injection, schedule: Q01DX001 (ip), vehicle: saline 98 % of control | dose: 20.0 mg/kg/injection, schedule: Q01DX001 (ip), vehicle: saline 102 % of control | dose: 40.0 mg/kg/injection, schedule: Q01DX001 (ip), vehicle: saline 106 % of control

Cc1ccc(S(=O)(=O)OC2CCC(OS(=O)(=O)c3ccc(C)cc3)C3CCCCC23)cc1 (configuration not stated)
inactive: [10] 88 % of control | [11] 90 % of control | [12] 88 % of control

O=C(O)CCCCCCCCCCNC(=O)Nc1cccc(C(F)(F)F)c1
inactive: dose: 100.0 mg/kg/injection, schedule: Q01DX001 (ip), vehicle: gum acacia 92 % of control and 96 % of control | [13] 92 % of control | dose: 100.0 mg/kg/injection, schedule: Q04DX002 (ip), vehicle: gum acacia 93 % of control and 88 % of control | dose: 100.0 mg/kg/injection, schedule: Q04DX003 (ip), vehicle: gum acacia 93 % of control and 89 % of control and 90 % of control | dose: 200.0 mg/kg/injection, schedule: Q01DX001 (ip), vehicle: gum acacia 94 % of control and 89 % of control | [14] 93 % of control | dose: 200.0 mg/kg/injection, schedule: Q04DX002 (ip), vehicle: gum acacia 92 % of control and 89 % of control | dose: 200.0 mg/kg/injection, schedule: Q04DX003 (ip), vehicle: gum acacia 93 % of control and 97 % of control and 88 % of control | dose: 400.0 mg/kg/injection, schedule: Q01DX001 (ip), vehicle: gum acacia 92 % of control and 96 % of control | [15] 93 % of control | dose: 400.0 mg/kg/injection, schedule: Q04DX002 (ip), vehicle: gum acacia 86 % of control and 90 % of control | dose: 400.0 mg/kg/injection, schedule: Q04DX003 (ip), vehicle: gum acacia 94 % of control and 88 % of control

Nc1cnccc1NCC(O)c1ccccc1 (configuration not stated)
inactive: [16] 95 % of control | [17] 101 % of control | [18] 86 % of control

COc1ccccc1NC(=O)Nc1ccc(Nc2ccccc2)cc1
inactive: [1] 101 % of control | [19] 103 % of control | [3] 104 % of control | [20] 91 % of control | [5] 104 % of control | [21] 97 % of control

CC(C)N(C(=O)Nc1cccc(F)c1)C1CCCCC1
inactive: dose: 50.0 mg/kg/injection, schedule: Q01DX009 (ip), vehicle: gum acacia 105 % of control | [13] 100 % of control and 88 % of control | [14] 94 % of control | [15] 90 % of control

CC(C)c1ccc(N2C(=O)C=CC2=O)cc1
inactive: [22] 100 % of control | [23] 91 % of control

COc1cc2c(cc1OC)C1=[N+](CCC1)CC2
inactive: dose: 75.0 mg/kg/injection, schedule: Q01DX001 (ip), vehicle: saline 101 % of control | [10] 97 % of control | dose: 150.0 mg/kg/injection, schedule: Q01DX001 (ip), vehicle: saline 102 % of control | [11] 94 % of control | [12] 100 % of control

CCN(CC)CC(=O)NCC(CCN1CCCCC1)c1cccc2ccccc12 (configuration not stated)
inactive: [24] 98 % of control | [25] 111 % of control | dose: 100.0 mg/kg/injection, schedule: Q01DX009 (ip), vehicle: saline 105 % of control | [2] 111 % of control

Cc1ccc(S(=O)(=O)F)cc1C(=O)Nc1ccc(OCCCc2c(N)nc(N)nc2N)cc1
inactive: dose: 37.5 mg/kg/injection, schedule: Q01DX001 (ip), vehicle: Klucel (hydroxypropylcellulose) (HPC) 96 % of control | dose: 75.0 mg/kg/injection, schedule: Q01DX001 (ip), vehicle: Klucel (hydroxypropylcellulose) (HPC) 94 % of control | dose: 150.0 mg/kg/injection, schedule: Q01DX001 (ip), vehicle: Klucel (hydroxypropylcellulose) (HPC) 98 % of control

CN1C(=O)CN=C(c2ccccc2)c2cc(Cl)ccc21
inactive: [22] 97 % of control | [23] 95 % of control | dose: 25.0 mg/kg/injection, schedule: Q04DX003 (ip), vehicle: Klucel (hydroxypropylcellulose) (HPC) 93 % of control | [26] 100 % of control | dose: 50.0 mg/kg/injection, schedule: Q04DX003 (ip), vehicle: Klucel (hydroxypropylcellulose) (HPC) 93 % of control | [1] 100 % of control and 103 % of control | [19] 110 % of control and 93 % of control | [3] 100 % of control and 97 % of control | [20] 102 % of control and 110 % of control | [5] 100 % of control | [21] 88 % of control

CC(=O)c1ccccc1OC(F)(F)C(F)Cl (configuration not stated)
inactive: [16] 101 % of control | [17] 103 % of control | [18] 103 % of control

CCSc1ccc2c(c1)N(CCCN1CCN(C)CC1)c1ccccc1S2
inactive: dose: 3.12 mg/kg/injection, schedule: Q01DX009 (ip), vehicle: saline 110 % of control | dose: 6.25 mg/kg/injection, schedule: Q01DX009 (ip), vehicle: saline 107 % of control | dose: 6.25 mg/kg/injection, schedule: Q04DX003 (ip), vehicle: saline 93 % of control | dose: 12.5 mg/kg/injection, schedule: Q01DX009 (ip), vehicle: saline 100 % of control | dose: 12.5 mg/kg/injection, schedule: Q04DX003 (ip), vehicle: saline 100 % of control and 101 % of control | dose: 25.0 mg/kg/injection, schedule: Q01DX009 (ip), vehicle: saline 113 % of control | [24] 96 % of control and 97 % of control and 103 % of control | dose: 50.0 mg/kg/injection, schedule: Q01DX009 (ip), vehicle: saline 98 % of control | [25] 100 % of control and 110 % of control | [2] 114 % of control and 104 % of control and 110 % of control

CC(=O)C(=Cc1ccccc1)C(C)=O
inactive: [26] 97 % of control | [1] 87 % of control and 90 % of control | [19] 92 % of control | [2] 106 % of control | [3] 95 % of control | [20] 97 % of control | [4] 116 % of control | [5] 91 % of control | [21] 97 % of control | [6] 106 % of control

CN=C(NC)c1cccc(NC(=O)c2cccc(C(=O)Nc3cccc(C(=NC)NC)c3)c2)c1
inactive: dose: 4.4 mg/kg/injection, schedule: Q01DX Z (ip), vehicle: carboxymethylcellulose (CMC) 96 % of control | dose: 6.6 mg/kg/injection, schedule: Q01DX Z (ip), vehicle: carboxymethylcellulose (CMC) 98 % of control | dose: 10.0 mg/kg/injection, schedule: Q01DX Z (ip), vehicle: carboxymethylcellulose (CMC) 96 % of control | dose: 15.0 mg/kg/injection, schedule: Q01DX Z (ip), vehicle: carboxymethylcellulose (CMC) 93 % of control and 98 % of control | dose: 22.0 mg/kg/injection, schedule: Q01DX Z (ip), vehicle: carboxymethylcellulose (CMC) 94 % of control
